From ChEMBL document CHEMBL1201862, “PubChem BioAssay data set” (2004)
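Each compound was tested at five concentrations against cells in 96-well plates for 48 hours. GI50 = concentration required for 50% inhibition of growth.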 Activity calls are given as the source filed them. Cut-off read from the data, not from the text of the source: active = GI50 up to about 1.1 µM and inactive = higher.

Key:
Experiment in all cases: NCI-60 cell line screen, 48 h
OVCAR-3 = tested on: OVCAR-3
DU-145 = tested on: DU-145
OVCAR-8 = tested on: OVCAR-8
SF-539 = tested on: SF-539
SW-620 = tested on: SW-620
MDA-MB-231 = tested on: MDA-MB-231
A498 = tested on: A498
PC-3 = tested on: PC-3
HOP-92 = tested on: HOP-92
NCI-H23 = tested on: NCI-H23
UACC-257 = tested on: UACC-257
NCI-H226 = tested on: NCI-H226
Hs-578T = tested on: Hs-578T
T47D = tested on: T47D
MOLT-4 = tested on: MOLT-4
MDA-N = tested on: MDA-N
SK-MEL-5 = tested on: SK-MEL-5
KM12 = tested on: KM12
786-0 = tested on: 786-0
UO-31 = tested on: UO-31
ACHN = tested on: ACHN
NCI/ADR-RES = tested on: NCI/ADR-RES
SNB-75 = tested on: SNB-75
SNB-19 = tested on: SNB-19
HCC 2998 = tested on: HCC 2998
SK-MEL-28 = tested on: SK-MEL-28
LOX IMVI = tested on: LOX IMVI
HOP-62 = tested on: HOP-62
MCF7 = tested on: MCF7
BT-549 = tested on: BT-549
SF-295 = tested on: SF-295
SK-OV-3 = tested on: SK-OV-3
RXF 393 = tested on: RXF 393
EKVX = tested on: EKVX
NCI-H522 = tested on: NCI-H522
A549 = tested on: A549
COLO 205 = tested on: COLO 205
M14 = tested on: M14
UACC-62 = tested on: UACC-62
Malme-3M = tested on: Malme-3M
K562 = tested on: K562
HCT-116 = tested on: HCT-116
U-251 = tested on: U-251
NCI-H460 = tested on: NCI-H460
CCRF-CEM = tested on: CCRF-CEM
CAKI-1 = tested on: CAKI-1
SR = tested on: SR
HT-29 = tested on: HT-29
HCT-15 = tested on: HCT-15
TK-10 = tested on: TK-10
SK-MEL-2 = tested on: SK-MEL-2
SF-268 = tested on: SF-268
OVCAR-5 = tested on: OVCAR-5
RPMI-8226 = tested on: RPMI-8226
OVCAR-4 = tested on: OVCAR-4
MDA-MB-435 = tested on: MDA-MB-435
SN12C = tested on: SN12C
HL-60 = tested on: HL-60
IGROV-1 = tested on: IGROV-1

Q: Which results are given for `CN(CCN)[C@H](CSSC[C@@H](c1ccccc1O)N(C)CCN)c1ccccc1O`?
A: GI50 (OVCAR-3): 8.38 µM (inactive); GI50 (DU-145): 14.8 µM (inactive); GI50 (OVCAR-8): 9.04 µM (inactive); GI50 (SF-539): 15.1 µM (inactive); GI50 (SW-620): 15.7 µM (inactive); GI50 (MDA-MB-231): 8.81 µM (inactive); GI50 (A498): 20.2 µM (inactive); GI50 (PC-3): 11.7 µM (inactive); GI50 (HOP-92): 17.7 µM (inactive); GI50 (NCI-H23): 13.8 µM (inactive); GI50 (UACC-257): 14.9 µM (inactive); GI50 (NCI-H226): 11.7 µM (inactive); GI50 (Hs-578T): 20.4 µM (inactive); GI50 (T47D): 26.1 µM (inactive); GI50 (MOLT-4): 4.73 µM (inactive); GI50 (MDA-N): 11.9 µM (inactive); GI50 (SK-MEL-5): 12 µM (inactive); GI50 (KM12): 11.1 µM (inactive); GI50 (786-0): 7.57 µM (inactive); GI50 (UO-31): 10.1 µM (inactive); GI50 (ACHN): 10.1 µM (inactive); GI50 (NCI/ADR-RES): 6.1 µM (inactive); GI50 (SNB-75): 14.7 µM (inactive); GI50 (SNB-19): 12.1 µM (inactive); GI50 (HCC 2998): 12 µM (inactive); GI50 (SK-MEL-28): 14.3 µM (inactive); GI50 (LOX IMVI): 4.27 µM (inactive); GI50 (HOP-62): 12.1 µM (inactive); GI50 (MCF7): 14.9 µM (inactive); GI50 (BT-549): 9.95 µM (inactive); GI50 (SF-295): 6.85 µM (inactive); GI50 (SK-OV-3): 11.7 µM (inactive); GI50 (RXF 393): 18.9 µM (inactive); GI50 (EKVX): 11.5 µM (inactive); GI50 (NCI-H522): 16.5 µM (inactive); GI50 (A549): 7.24 µM (inactive); GI50 (COLO 205): 24.8 µM (inactive); GI50 (M14): 13.5 µM (inactive); GI50 (UACC-62): 10 µM (inactive); GI50 (Malme-3M): 16.3 µM (inactive); GI50 (K562): 7.18 µM (inactive); GI50 (HCT-116): 4.12 µM (inactive); GI50 (U-251): 15.9 µM (inactive); GI50 (NCI-H460): 4.98 µM (inactive); GI50 (CCRF-CEM): 1.44 µM (inactive); GI50 (CAKI-1): 13 µM (inactive); GI50 (SR): 2.87 µM (inactive); GI50 (HT-29): 9.55 µM (inactive); GI50 (HCT-15): 5.33 µM; GI50 (TK-10): 13.9 µM (inactive); GI50 (SK-MEL-2): 14.6 µM (inactive); GI50 (SF-268): 12.4 µM (inactive); GI50 (OVCAR-5): 13.9 µM (inactive); GI50 (RPMI-8226): 12.9 µM (inactive); GI50 (OVCAR-4): 14.1 µM (inactive); GI50 (MDA-MB-435): 18 µM (inactive); GI50 (SN12C): 9.48 µM (inactive)

Q: For `COc1cccc(CC(=O)N2CCN(CCCc3ccccc3)CC2)c1`, which GI50 (OVCAR-3) is on record?
A: 60.1 µM (inactive)

Q: What about the GI50 (DU-145) of the same compound?
A: > 100 µM (inactive)

Q: And the GI50 (OVCAR-8)?
A: 53 µM (inactive)

Q: And the GI50 (SF-539)?
A: > 100 µM (inactive)

Q: And the GI50 (SW-620)?
A: > 100 µM (inactive)

Q: And the GI50 (MDA-MB-231)?
A: > 100 µM (inactive)

Q: And the GI50 (A498)?
A: > 100 µM (inactive)

Q: What about the GI50 (PC-3) of the same compound?
A: > 100 µM (inactive)

Q: What about the GI50 (HOP-92) of the same compound?
A: 25.2 µM (inactive)

Q: And the GI50 (NCI-H23)?
A: 36.1 µM (inactive)

Q: What about the GI50 (UACC-257) of the same compound?
A: 37.3 µM (inactive)

Q: And the GI50 (NCI-H226)?
A: > 100 µM (inactive)

Q: And the GI50 (Hs-578T)?
A: > 100 µM (inactive)

Q: What about the GI50 (T47D) of the same compound?
A: 22.2 µM (inactive)

Q: And the GI50 (MOLT-4)?
A: 54.7 µM (inactive)

Q: And the GI50 (MDA-N)?
A: 90.8 µM (inactive)

Q: What about the GI50 (SK-MEL-5) of the same compound?
A: 23.2 µM (inactive)

Q: What about the GI50 (KM12) of the same compound?
A: > 100 µM (inactive)

Q: And the GI50 (786-0)?
A: > 100 µM (inactive)

Q: What about the GI50 (UO-31) of the same compound?
A: 39.1 µM (inactive)

Q: And the GI50 (ACHN)?
A: 83.8 µM (inactive)

Q: And the GI50 (NCI/ADR-RES)?
A: 27.9 µM (inactive)

Q: What about the GI50 (SNB-19) of the same compound?
A: > 100 µM (inactive)

Q: And the GI50 (HCC 2998)?
A: 98.4 µM (inactive)

Q: And the GI50 (SK-MEL-28)?
A: > 100 µM (inactive)

Q: What about the GI50 (LOX IMVI) of the same compound?
A: > 100 µM (inactive)

Q: What about the GI50 (HOP-62) of the same compound?
A: > 100 µM (inactive)

Q: What about the GI50 (HL-60) of the same compound?
A: 61.2 µM (inactive)

Q: What about the GI50 (MCF7) of the same compound?
A: 60.3 µM (inactive)

Q: What about the GI50 (BT-549) of the same compound?
A: 33.8 µM (inactive)

Q: What about the GI50 (SF-295) of the same compound?
A: 47.5 µM (inactive)

Q: What about the GI50 (SK-OV-3) of the same compound?
A: > 100 µM (inactive)

Q: And the GI50 (EKVX)?
A: 59.6 µM (inactive)

Q: And the GI50 (NCI-H522)?
A: 57.9 µM (inactive)

Q: What about the GI50 (A549) of the same compound?
A: 66.5 µM (inactive)

Q: What about the GI50 (COLO 205) of the same compound?
A: 76.7 µM (inactive)

Q: And the GI50 (M14)?
A: 63.8 µM (inactive)

Q: And the GI50 (UACC-62)?
A: > 100 µM (inactive)

Q: What about the GI50 (K562) of the same compound?
A: 33.9 µM (inactive)

Q: And the GI50 (HCT-116)?
A: 65.6 µM (inactive)

Q: And the GI50 (U-251)?
A: > 100 µM (inactive)

Q: And the GI50 (IGROV-1)?
A: > 100 µM (inactive)

Q: What about the GI50 (NCI-H460) of the same compound?
A: > 100 µM (inactive)

Q: What about the GI50 (CCRF-CEM) of the same compound?
A: 89.3 µM (inactive)

Q: And the GI50 (CAKI-1)?
A: 80.4 µM (inactive)

Q: What about the GI50 (SR) of the same compound?
A: 42.1 µM (inactive)

Q: What about the GI50 (HT-29) of the same compound?
A: 31.4 µM (inactive)

Q: What about the GI50 (HCT-15) of the same compound?
A: 45.9 µM

Q: What about the GI50 (TK-10) of the same compound?
A: 78.7 µM (inactive)

Q: And the GI50 (SK-MEL-2)?
A: > 100 µM (inactive)

Q: And the GI50 (SF-268)?
A: > 100 µM (inactive)

Q: And the GI50 (OVCAR-5)?
A: > 100 µM (inactive)

Q: And the GI50 (RPMI-8226)?
A: 43.6 µM (inactive)

Q: What about the GI50 (OVCAR-4) of the same compound?
A: 34.4 µM (inactive)

Q: What about the GI50 (MDA-MB-435) of the same compound?
A: 70.6 µM (inactive)

Q: What about the GI50 (SN12C) of the same compound?
A: > 100 µM (inactive)
